Laboratory results from patent publication US11046726B2, “Nucleotide analogues” (QIAGEN SCIENCES, LLC, priority 2015, dated 2021).

assay: Cleavage experiments with a variety of cleavage agents, reaction mixtures analyzed by RP-HPLC (FIG. 77, 78A-78B); conditions: after 10 minutes of incubation with cleave reagent
Description: In addition to these a variety of suitable cleaving agents can be used such as Bis(2-mercaptoethyl)sulfone (BMS) and N,N′-dimethyl-N,N′-bis(mercaptoacetyl)hydrazine (DMH) (Singh et al., Bioorg. Chem., 22, 109-115 (1994). Reactions can be further catalyzed by inclusion of selenols (Singh et al. Anal Biochem. 1995 Nov. 20; 232(1):86-91 [18]). Borohydrides, such as sodium borohydrides can also be used for this purpose (Stahl et al., Anal. Chem., 1957, 29 (1), pp 151 155 [19]) as well as ascorbic acid (Nardai et al., J. Biol. Chem. 276, 8825-8828 (2001)). In addition, enzymatic methods for cleavage of disulfide bonds ae also well known such as disulfide and thioreductase and can be used with compounds of the present invention (Holmgren et. al., Methods in Enzymology, Volume 252, 1995, Pages 199-208 [21]).

SMILES | cleavage of linker and 3′-protective group by cleavage agent
N[C@@H](CS)C(=O)O [L-cysteine] | full cleavage of both linker and the 3′-protective groups
OC(=S)CCC(O)=S [dithiosuccinic acid] | selective cleavage of 3′-O-protective group
O[C@H](CS)[C@H](O)CS (racemic) [DTT, dithiothreitol] | full cleavage of both linker and the 3′-protective groups
NCCS [cysteamine] | full cleavage of both linker and the 3′-protective groups
